Experimental data published in PubChem BioAssay AID1963866 (Molecular Pharmacology Branch, DTP, NCI, 2024).

Tested on: PDC KRAS tumor spheroids with HUVEC/MSC, viability
Assay: Anticancer human tumor 349418-098-R-PDC patient-derived lung adenocarcinoma cell line growth inhibition [KRAS2]
Conditions: for IC50: curve of first compound; for viability, T/C: stronger effect = lower value
How it was run: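 Combination screen of spheroid viability in tumor-cell co-cultures with endothelial (HUVEC) and mesenchymal stem cell stroma. Each agent was tested in half-log dilutions, topping at clinical Cmax or at 10 microM without a known Cmax.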

[1] = second compound 0.1 µM, first compound 0.0316 µM
[2] = second compound 0.1 µM, first compound 0.1 µM
[3] = second compound 0.1 µM, first compound 0.316 µM
[4] = second compound 0.1 µM, first compound 1 µM
[5] = second compound 0.1 µM, first compound 3.16 µM
[6] = second compound 0.1 µM, first compound 10 µM
[7] = second compound 0.316 µM, first compound 0.0316 µM
[8] = second compound 0.316 µM, first compound 0.1 µM
[9] = second compound 0.316 µM, first compound 0.316 µM
[10] = second compound 0.316 µM, first compound 1 µM
[11] = second compound 0.316 µM, first compound 3.16 µM
[12] = second compound 0.316 µM, first compound 10 µM
[13] = second compound 1 µM, first compound 0.0316 µM
[14] = second compound 1 µM, first compound 0.1 µM
[15] = second compound 1 µM, first compound 0.316 µM
[16] = second compound 1 µM, first compound 1 µM
[17] = second compound 1 µM, first compound 3.16 µM
[18] = second compound 1 µM, first compound 10 µM
[19] = second compound 3.16 µM, first compound 0.0316 µM
[20] = second compound 3.16 µM, first compound 0.1 µM
[21] = second compound 3.16 µM, first compound 0.316 µM
[22] = second compound 3.16 µM, first compound 1 µM
[23] = second compound 3.16 µM, first compound 3.16 µM
[24] = second compound 3.16 µM, first compound 10 µM
[25] = second compound 10 µM, first compound 0.0316 µM
[26] = second compound 10 µM, first compound 0.1 µM
[27] = second compound 0.0316 µM, first compound 0.0316 µM
[28] = second compound 0.0316 µM, first compound 0.1 µM
[29] = second compound 0.1 µM, first compound 0.000316 µM
[30] = second compound 0.1 µM, first compound 0.001 µM
[31] = second compound 0.1 µM, first compound 0.00316 µM
[32] = second compound 0.1 µM, first compound 0.01 µM
[33] = second compound 0.316 µM, first compound 0.000316 µM
[34] = second compound 0.316 µM, first compound 0.001 µM
[35] = second compound 0.316 µM, first compound 0.00316 µM
[36] = second compound 0.316 µM, first compound 0.01 µM
[37] = second compound 1 µM, first compound 0.000316 µM
[38] = second compound 1 µM, first compound 0.001 µM
[39] = second compound 1 µM, first compound 0.00316 µM
[40] = second compound 1 µM, first compound 0.01 µM
[41] = second compound 3.16 µM, first compound 0.000316 µM
[42] = second compound 3.16 µM, first compound 0.001 µM
[43] = second compound 3.16 µM, first compound 0.00316 µM
[44] = second compound 3.16 µM, first compound 0.01 µM
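Also: spheroids exposed to compounds for seven days before readout.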

SMILES: COC(=O)c1ccc2c(C(=Nc3ccc(N(C)C(=O)CN4CCN(C)CC4)cc3)c3ccccc3)c(O)[nH]c2c1 + CNCc1ccccc1-c1csc(C(C)Nc2nc(C)nc3cc(OC)c(OC)cc23)c1
- IC50 (second compound 0.1 µM): 445 nM
- IC50 (second compound 0.316 µM): 270 nM
- IC50 (second compound 1 µM): 53.6 nM
- IC50 (second compound 3.16 µM): < 31.6 nM
- IC50 (second compound 10 µM): < 31.6 nM
- viability, T/C [1]: 84.1%
- viability, T/C [2]: 96.6%
- viability, T/C [3]: 55.8%
- viability, T/C [4]: 29.8%
- viability, T/C [5]: 12.4%
- viability, T/C [6]: 12.9%
- viability, T/C [7]: 75.3%
- viability, T/C [8]: 84.9%
- viability, T/C [9]: 42.5%
- viability, T/C [10]: 25.7%
- viability, T/C [11]: 6.84%
- viability, T/C [12]: 13%
- viability, T/C [13]: 56.5%
- viability, T/C [14]: 41.4%
- viability, T/C [15]: 27.6%
- viability, T/C [16]: 10.6%
- viability, T/C [17]: 1.75%
- viability, T/C [18]: 1.57%
- viability, T/C [19]: 0.32%
- viability, T/C [20]: 0.25%
- viability, T/C [21]: 0.19%
- viability, T/C [22]: 0.06%
- viability, T/C [23]: 0.13%
- viability, T/C [24]: 0.15%
- viability, T/C [25]: 0.09%
- viability, T/C [26]: 0.07%
- viability, T/C (second compound 10 µM, first compound 0.316 µM): 0.06%
- viability, T/C (second compound 10 µM, first compound 1 µM): 0.06%
- viability, T/C (second compound 10 µM, first compound 3.16 µM): 0.05%
- viability, T/C (second compound 10 µM, first compound 10 µM): 0.09%

SMILES: CN(C)C/C=C/C(=O)Nc1cc2c(Nc3ccc(F)c(Cl)c3)ncnc2cc1O[C@H]1CCOC1 + C=CC(=O)N1CCN(c2nc(OCC3CCCN3C)nc3c2CCN(c2cccc4cccc(C)c24)C3)CC1CC#N
- IC50 (second compound 0.0316 µM): > 100 nM
- IC50 (second compound 0.1 µM): > 100 nM
- IC50 (second compound 0.316 µM): > 100 nM
- IC50 (second compound 1 µM): > 100 nM
- IC50 (second compound 3.16 µM): < 0.316 nM
- viability, T/C (second compound 0.0316 µM, first compound 0.000316 µM): 102%
- viability, T/C (second compound 0.0316 µM, first compound 0.001 µM): 101%
- viability, T/C (second compound 0.0316 µM, first compound 0.00316 µM): 85%
- viability, T/C (second compound 0.0316 µM, first compound 0.01 µM): 105%
- viability, T/C [27]: 102%
- viability, T/C [28]: 87.2%
- viability, T/C [29]: 101%
- viability, T/C [30]: 109%
- viability, T/C [31]: 86.3%
- viability, T/C [32]: 92.9%
- viability, T/C [1]: 83.8%
- viability, T/C [2]: 83.9%
- viability, T/C [33]: 99.9%
- viability, T/C [34]: 99.8%
- viability, T/C [35]: 94.6%
- viability, T/C [36]: 94.9%
- viability, T/C [7]: 82.1%
- viability, T/C [8]: 84.4%
- viability, T/C [37]: 84.5%
- viability, T/C [38]: 75.2%
- viability, T/C [39]: 65.9%
- viability, T/C [40]: 69.4%
- viability, T/C [13]: 77.4%
- viability, T/C [14]: 58.3%
- viability, T/C [41]: 0.17%
- viability, T/C [42]: 0.19%
- viability, T/C [43]: 0.17%
- viability, T/C [44]: 0.17%
- viability, T/C [19]: 1.41%
- viability, T/C [20]: 0.2%

SMILES: CC(C)n1nc(-c2ccc3oc(N)nc3c2)c2c(N)ncnc21 + COc1cc2nc(C)nc(NC(C)c3cc(N)cc(C(F)(F)F)c3)c2cc1OC1CCOC1
- IC50 (second compound 0.1 µM): 1.14 nM
- IC50 (second compound 0.316 µM): 0.791 nM
- IC50 (second compound 1 µM): 0.969 nM
- IC50 (second compound 3.16 µM): 1.27 nM
- IC50 (second compound 10 µM): < 0.316 nM
- viability, T/C [29]: 118%
- viability, T/C [30]: 54.2%
- viability, T/C [31]: 16.5%
- viability, T/C [32]: 10.9%
- viability, T/C [1]: 9.94%
- viability, T/C [2]: 7.92%
- viability, T/C [33]: 106%
- viability, T/C [34]: 35.6%
- viability, T/C [35]: 15.3%
- viability, T/C [36]: 8.46%
- viability, T/C [7]: 8.96%
- viability, T/C [8]: 8.23%
- viability, T/C [37]: 102%
- viability, T/C [38]: 48.5%
- viability, T/C [39]: 16.2%
- viability, T/C [40]: 9.11%
- viability, T/C [13]: 8.55%
- viability, T/C [14]: 7.48%
- viability, T/C [41]: 99.7%
- viability, T/C [42]: 58.4%
- viability, T/C [43]: 18.1%
- viability, T/C [44]: 8.93%
- viability, T/C [19]: 8.73%
- viability, T/C [20]: 7.6%
- viability, T/C (second compound 10 µM, first compound 0.000316 µM): 34.2%
- viability, T/C (second compound 10 µM, first compound 0.001 µM): 11.4%
- viability, T/C (second compound 10 µM, first compound 0.00316 µM): 4.75%
- viability, T/C (second compound 10 µM, first compound 0.01 µM): 5.13%
- viability, T/C [25]: 4.36%
- viability, T/C [26]: 5.51%

SMILES: CCNC(=O)CC1N=C(c2ccc(Cl)cc2)c2cc(OC)ccc2-n2c(C)nnc21 (stereo not given) + C=CC(=O)N1CCN(c2nc(OCC3CCCN3C)nc3c2CCN(c2cccc4cccc(C)c24)C3)CC1CC#N
- IC50 (second compound 0.0316 µM): 122 nM
- IC50 (second compound 0.1 µM): 95.7 nM
- IC50 (second compound 0.316 µM): 186 nM
- IC50 (second compound 1 µM): 47.7 nM
- IC50 (second compound 3.16 µM): < 31.6 nM
- viability, T/C [27]: 102%
- viability, T/C [28]: 50.9%
- viability, T/C (second compound 0.0316 µM, first compound 0.316 µM): 34.2%
- viability, T/C (second compound 0.0316 µM, first compound 1 µM): 8.72%
- viability, T/C (second compound 0.0316 µM, first compound 3.16 µM): 1.74%
- viability, T/C (second compound 0.0316 µM, first compound 10 µM): 0.85%
- viability, T/C [1]: 93.1%
- viability, T/C [2]: 48.1%
- viability, T/C [3]: 21.8%
- viability, T/C [4]: 9.94%
- viability, T/C [5]: 1.6%
- viability, T/C [6]: 0.66%
- viability, T/C [7]: 101%
- viability, T/C [8]: 70.5%
- viability, T/C [9]: 30.6%
- viability, T/C [10]: 16.6%
- viability, T/C [11]: 4.31%
- viability, T/C [12]: 1.58%
- viability, T/C [13]: 62.9%
- viability, T/C [14]: 26.6%
- viability, T/C [15]: 10.7%
- viability, T/C [16]: 4.52%
- viability, T/C [17]: 0.59%
- viability, T/C [18]: 2.47%
- viability, T/C [19]: 0.12%
- viability, T/C [20]: 0.1%
- viability, T/C [21]: 0.09%
- viability, T/C [22]: 0.08%
- viability, T/C [23]: 0.08%
- viability, T/C [24]: 0.13%
